Assay results from patent US20140107218A1, “METHODS FOR MAINTAINING EYE HEALTH AND AMELIORATING OPTHALMIC MALADIES IN ANIMALS” (NESTEC SA, priority 2012, published 2014).

System: rabbit lenses
Assay: Calcium-induced lens opacification in cultured rabbit lenses, transparency evaluation
Assay type: cell-based
Conditions: 20 mM CaCl2 plus polyamine 100 mM; for Effect on calcium-induced lens opacification (in words): 72 hours; for Percent Light Transmittance After Treatments (Average): 72 hours of treatment, absorbance at 394 nm, triplicate, Control 73.3, Ca alone 47.3
Method: Rabbit eyes were obtained from a rabbit renderer and were dissected within twenty-four (24) hours of the animal's death. The lenses were removed aseptically and cultured in M199 media, 20 mM HEPES, 100 units/ml penicillin, […] streptomycin and 0.1% BSA under 5% CO2 at 37° C. in a humidified incubator for twenty-four hours before the start of treatment. Lens opacification was induced with 20 mM CaCl2, according to the method of Hytower and Dering (Hightower Kr, Dering, M (1984) Invest Ophthalmol Vis Sci 251:108-111). Polyamines were added at a concentration of 100 mM. All experiments were done in triplicate.
Transparency Evaluation: When proteins are modified or oxidized they aggregate, and cause protein solutions to become cloudy or translucent because the proteins lose solubility. The turbidity of a protein solution is a measure of protein aggregation. Turbidity of the lenses after treatment was determined by measuring the increase in protein absorbency. Control (no Ca++), Ca++ and Ca++ with polyamines spermidine, spermine, or putrescine were collected and homogenized in lysis buffer [50 mM Tris-HCl, pH 8.0; 150 mM NaCl, 1% Igepal and protease inhibitor cocktail (Sigma)] after seventy-two (72) hours of treatment. Absorbance was measured at 394 nm for each sample using a spectrophotometer. Transparency was calculated as a function of the percent transmittance according to Jain (Jain Ak, Lim G, Langford M, Jain Sk (2002) Free Radic Biol Med 33:1615-1621).

| SMILES | Effect on calcium-induced lens opacification (in words) | Percent Light Transmittance After Treatments (Average) |
| --- | --- | --- |
| NCCCCN [Putrescine, putrescine] | reduce calcium-induced lens opacification | 65.7% |
| NCCCCNCCCN [Spermidine, spermidine] | reduce calcium-induced lens opacification | 56.8% |
| NCCCNCCCCNCCCN [Spermine, spermine] | – | 53% |
